Data: ChEMBL document CHEMBL5113442, “Discovery of agonist-antagonist pairs for the modulation of Ca [2]+ and voltage-gated K+ channels of large conductance that contain beta1 subunits” (Bioorg Med Chem, 2022)
Active and inactive are the calls of the source. No cut-off for these calls is given here.

Experiments:
Type in all cases: cell-based
[1] = Agonist activity at rat BK calcium channel alphabeta1 expressed in CHO cells assessed as increase in current amplitude by automated whole cell patch clamp analysis
CHO [2] = assay: Agonist activity at rat BK calcium channel alphabeta1 expressed in CHO cells assessed as maximal current amplitude by automated whole cell patch clamp analysis; conditions: filed as agonist
CHO [3] = assay: Agonist activity at rat BK calcium channel alphabeta1 expressed in CHO cells assessed as fold increase in current amplitude at 0.0001 to 33.3 uM by automated whole cell patch clamp analysis; conditions: filed as agonist, dose 0.0001-33.3 µM
CHO [4] = assay: Antagonist activity at rat BK calcium channel alphabeta1 expressed in CHO cells assessed as decrease in current amplitude at 0.1 to 1 uM in presence of compound 1 by automated whole cell patch clamp analysis; conditions: filed as antagonist, dose 0.1-1 µM
CHO [5] = assay: Antagonist activity at rat BK calcium channel alphabeta1 expressed in CHO cells assessed as fold change in current amplitude at 3 uM in presence of compound 1 by automated whole cell patch clamp analysis; conditions: filed as antagonist
CHO [6] = assay: Antagonist activity at rat BK calcium channel alphabeta1 expressed in CHO cells assessed as fold change in current amplitude at 1 uM in presence of compound 1 by automated whole cell patch clamp analysis; conditions: filed as antagonist

## CC[C@@H](C)NS(=O)(=O)c1cc([N+](=O)[O-])ccc1Oc1c(C)c(C(=O)NC[C@@H]2CCCO2)nn1-c1cccc(C)c1C
[1]
  EC50: 2 nM
CHO [2]
  ECmax: 0.42 µM

## COc1ccc(C(=O)NC(=S)Nc2ccc(O)c(-c3nc4ccc(C)cc4o3)c2)cc1[N+](=O)[O-]
CHO [3]
  fold change (FC): 2.47
CHO [2]
  ECmax: 0.21 µM

## CCOC(=O)c1c(NC(=O)[C@H](C)Sc2nnc(CNC(=O)c3ccc(C)c([N+](=O)[O-])c3)n2CCc2ccccc2)sc2c1CCC2
CHO [3]
  fold change (FC): 1.84
CHO [2]
  ECmax: 0.14 µM

## C/C(=N\Nc1ccc([N+](=O)[O-])cc1S(=O)(=O)Nc1ccccc1Cl)c1ccc2ccccc2c1O
CHO [3]
  fold change (FC): 4.05
CHO [2]
  ECmax: 0.38 µM

## COc1ccc([N+](=O)[O-])cc1/N=c1\ssc2c1-c1cc(C)c(C)cc1NC2(C)C
CHO [3]
  fold change (FC): 3.86

## O=C(Cc1ccc([N+](=O)[O-])cc1)NC[C@H](c1ccccc1Cl)c1c[nH]c2ccccc12
CHO [3]
  fold change (FC): 2.51

## COc1ccc(NC(=O)/C(=C\c2cccc([N+](=O)[O-])c2)NC(=O)c2ccc(F)cc2Cl)cc1OC
CHO [3]
  fold change (FC): 1.94
CHO [2]
  ECmax: 0.15 µM

## C/C(=C/C(=O)C[C@H](C)C(=O)O)[C@@H]1CC(=O)[C@@]2(C)C3=C(C(=O)C[C@]12C)[C@@]1(C)CCC(=O)C(C)(C)[C@@H]1C[C@@H]3O
[1]
  EC50: 20 nM
CHO [2]
  ECmax: 0.78 µM

## O=C(Nc1ccccc1)c1nnc(/C(Cl)=C\c2cccc([N+](=O)[O-])c2)s1
CHO [3]
  fold change (FC): 4.05
CHO [2]
  ECmax: 0.44 µM

## O=C(Nc1ccc(F)cc1)c1nnc(/C(Cl)=C\c2cccc([N+](=O)[O-])c2)s1
[1]
  EC50: 5 nM
CHO [2]
  ECmax: 0.72 µM

## COc1cc(/C=C2/C(=O)NC(=O)N(c3ccccc3)C2=O)cc(Br)c1OCc1ccc([N+](=O)[O-])cc1
CHO [3]
  fold change (FC): 4.07
CHO [2]
  ECmax: 0.35 µM

## O=C(NCc1ccc(F)cc1)c1nnc(/C(Cl)=C\c2cccc([N+](=O)[O-])c2)s1
CHO [3]
  fold change (FC): 1.73

## O=C1NC(=O)N(c2ccc(F)cc2)C(=O)/C1=C/c1cc(Br)ccc1OCc1cccc([N+](=O)[O-])c1
[1]
  EC50: 20 nM
CHO [2]
  ECmax: 1.05 µM

## Cc1n[nH]c(C)c1CCc1nc2c3ccccc3nc(SCc3ccc([N+](=O)[O-])cc3)n2n1
CHO [3]
  fold change (FC): 1.23
CHO [4]
  Activity: Active
CHO [5]
  fold change (FC): 2
CHO [6]
  fold change (FC): 2.2
CHO [2]
  ECmax: 0.25 µM

## Cc1ccc(C(=O)NN2C(=O)/C(=C\c3ccc(OC(=O)c4cccc([N+](=O)[O-])c4)cc3)SC2=S)cc1
CHO [3]
  fold change (FC): 2.47
